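Step 1: Grow cells in 96-well plates. Step 2: Expose to compound for 48 hours at 5 concentrations. Step 3: Interpolate endpoints linearly; if unreached, use highest concentration. TGI marks complete inhibition of growth.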
Experiments:
Assay in all cases: DTP human tumour cell line panel, 48 h
HCT-116 colon = system: HCT-116 colon
ACHN renal = system: ACHN renal
SF-539 CNS = system: SF-539 CNS
OVCAR-3 ovarian = system: OVCAR-3 ovarian
MDA-N = system: MDA-N
MCF7 breast = system: MCF7 breast
HS 578T breast = system: HS 578T breast
MDA-MB-435 = system: MDA-MB-435
LOX IMVI melanoma = system: LOX IMVI melanoma
TK-10 renal = system: TK-10 renal
RPMI-8226 leukemia = system: RPMI-8226 leukemia
NCI-H23 lung = system: NCI-H23 lung
EKVX NSCLC = system: EKVX NSCLC
SF-295 CNS = system: SF-295 CNS
HCC-2998 colon = system: HCC-2998 colon
NCI-H522 lung = system: NCI-H522 lung
NCI-H460 lung = system: NCI-H460 lung
T-47D breast = system: T-47D breast
K-562 leukemia = system: K-562 leukemia
SK-MEL-5 melanoma = system: SK-MEL-5 melanoma
M14 melanoma = system: M14 melanoma
RXF 393 renal = system: RXF 393 renal
COLO 205 colon = system: COLO 205 colon
CAKI-1 renal = system: CAKI-1 renal
SR leukemia = system: SR leukemia
NCI-H226 lung = system: NCI-H226 lung
KM12 colon = system: KM12 colon
SK-MEL-28 melanoma = system: SK-MEL-28 melanoma
SK-MEL-2 melanoma = system: SK-MEL-2 melanoma
PC-3 prostate = system: PC-3 prostate
A498 renal = system: A498 renal
IGROV1 ovarian = system: IGROV1 ovarian
HL-60(TB) leukemia = system: HL-60(TB) leukemia
HOP-62 NSCLC = system: HOP-62 NSCLC
A549 NSCLC = system: A549 NSCLC
DU-145 prostate = system: DU-145 prostate
BT-549 breast = system: BT-549 breast
SF-268 CNS = system: SF-268 CNS
SK-OV-3 ovarian = system: SK-OV-3 ovarian
MDA-MB-231 breast = system: MDA-MB-231 breast
786-0 renal = system: 786-0 renal
UO-31 renal = system: UO-31 renal
SN12C renal = system: SN12C renal
HT29 colon = system: HT29 colon
MOLT-4 leukemia = system: MOLT-4 leukemia
HOP-92 NSCLC = system: HOP-92 NSCLC
HCT-15 colon = system: HCT-15 colon
U251 CNS = system: U251 CNS
UACC-257 melanoma = system: UACC-257 melanoma
OVCAR-8 ovarian = system: OVCAR-8 ovarian
OVCAR-5 ovarian = system: OVCAR-5 ovarian
SNB-19 CNS = system: SNB-19 CNS
CCRF-CEM leukemia = system: CCRF-CEM leukemia
OVCAR-4 ovarian = system: OVCAR-4 ovarian
SW-620 colon = system: SW-620 colon
UACC-62 melanoma = system: UACC-62 melanoma
MALME-3M melanoma = system: MALME-3M melanoma
SNB-75 CNS = system: SNB-75 CNS
NCI/ADR-RES ovarian = system: NCI/ADR-RES ovarian
DMS 114 small cell lung = system: DMS 114 small cell lung
SNB-78 CNS = system: SNB-78 CNS
LXFL 529 NSCLC = system: LXFL 529 NSCLC
KM20L2 colon = system: KM20L2 colon
DMS 273 small cell lung = system: DMS 273 small cell lung
DLD-1 colon = system: DLD-1 colon
HOP-18 NSCLC = system: HOP-18 NSCLC
M19-MEL melanoma = system: M19-MEL melanoma

CC[C@H](CCCC[C@H]1CC[C@@H]2CC(=O)C[C@H]12)OC
TGI (HCT-116 colon): > 100 µM | TGI (ACHN renal): > 100 µM | TGI (SF-539 CNS): > 100 µM | TGI (OVCAR-3 ovarian): > 100 µM | TGI (MDA-N): > 100 µM | TGI (MCF7 breast): > 100 µM | TGI (HS 578T breast): > 100 µM | TGI (MDA-MB-435): > 100 µM | TGI (LOX IMVI melanoma): > 100 µM | TGI (TK-10 renal): > 100 µM | TGI (RPMI-8226 leukemia): > 100 µM | TGI (NCI-H23 lung): > 100 µM | TGI (EKVX NSCLC): > 100 µM | TGI (SF-295 CNS): > 100 µM | TGI (HCC-2998 colon): > 100 µM | TGI (NCI-H522 lung): > 100 µM | TGI (NCI-H460 lung): > 100 µM | TGI (T-47D breast): > 100 µM | TGI (K-562 leukemia): 55.2 µM | TGI (SK-MEL-5 melanoma): 93 µM | TGI (M14 melanoma): > 100 µM | TGI (RXF 393 renal): > 100 µM | TGI (COLO 205 colon): > 100 µM | TGI (CAKI-1 renal): > 100 µM | TGI (SR leukemia): > 100 µM | TGI (NCI-H226 lung): > 100 µM | TGI (KM12 colon): > 100 µM | TGI (SK-MEL-28 melanoma): > 100 µM | TGI (SK-MEL-2 melanoma): > 100 µM | TGI (PC-3 prostate): > 100 µM | TGI (A498 renal): > 100 µM | TGI (IGROV1 ovarian): > 100 µM | TGI (HL-60(TB) leukemia): 67.8 µM | TGI (HOP-62 NSCLC): > 100 µM | TGI (A549 NSCLC): > 100 µM | TGI (DU-145 prostate): > 100 µM | TGI (BT-549 breast): > 100 µM | TGI (SF-268 CNS): > 100 µM | TGI (SK-OV-3 ovarian): > 100 µM | TGI (MDA-MB-231 breast): > 100 µM | TGI (786-0 renal): > 100 µM | TGI (UO-31 renal): > 100 µM | TGI (SN12C renal): > 100 µM | TGI (HT29 colon): > 100 µM | TGI (MOLT-4 leukemia): > 100 µM | TGI (HOP-92 NSCLC): > 100 µM | TGI (HCT-15 colon): > 100 µM | TGI (U251 CNS): > 100 µM | TGI (UACC-257 melanoma): > 100 µM | TGI (OVCAR-8 ovarian): > 100 µM | TGI (OVCAR-5 ovarian): > 100 µM | TGI (SNB-19 CNS): > 100 µM | TGI (CCRF-CEM leukemia): > 100 µM | TGI (OVCAR-4 ovarian): > 100 µM | TGI (SW-620 colon): > 100 µM | TGI (UACC-62 melanoma): > 100 µM | TGI (MALME-3M melanoma): > 100 µM | TGI (SNB-75 CNS): > 100 µM | TGI (NCI/ADR-RES ovarian): > 100 µM

O=C(O)CCCSC(=O)Nc1ccc(N=Nc2ccccc2)cc1
TGI (HCT-116 colon): > 100 µM | TGI (ACHN renal): > 100 µM | TGI (SF-539 CNS): > 100 µM | TGI (OVCAR-3 ovarian): > 100 µM | TGI (LOX IMVI melanoma): > 100 µM | TGI (TK-10 renal): > 100 µM | TGI (DMS 114 small cell lung): > 100 µM | TGI (RPMI-8226 leukemia): > 100 µM | TGI (NCI-H23 lung): > 100 µM | TGI (EKVX NSCLC): > 100 µM | TGI (SF-295 CNS): > 100 µM | TGI (HCC-2998 colon): > 100 µM | TGI (NCI-H522 lung): > 100 µM | TGI (NCI-H460 lung): > 100 µM | TGI (K-562 leukemia): > 100 µM | TGI (M14 melanoma): > 100 µM | TGI (RXF 393 renal): > 100 µM | TGI (COLO 205 colon): > 100 µM | TGI (CAKI-1 renal): > 100 µM | TGI (SR leukemia): > 100 µM | TGI (NCI-H226 lung): > 100 µM | TGI (KM12 colon): > 100 µM | TGI (SK-MEL-28 melanoma): > 100 µM | TGI (SK-MEL-2 melanoma): > 100 µM | TGI (A498 renal): > 100 µM | TGI (HOP-62 NSCLC): > 100 µM | TGI (A549 NSCLC): > 100 µM | TGI (SNB-78 CNS): > 100 µM | TGI (SF-268 CNS): > 100 µM | TGI (786-0 renal): > 100 µM | TGI (UO-31 renal): > 100 µM | TGI (LXFL 529 NSCLC): > 100 µM | TGI (SN12C renal): > 100 µM | TGI (KM20L2 colon): > 100 µM | TGI (DMS 273 small cell lung): > 100 µM | TGI (HT29 colon): > 100 µM | TGI (MOLT-4 leukemia): > 100 µM | TGI (HCT-15 colon): > 100 µM | TGI (U251 CNS): > 100 µM | TGI (UACC-257 melanoma): > 100 µM | TGI (OVCAR-8 ovarian): > 100 µM | TGI (OVCAR-5 ovarian): > 100 µM | TGI (SNB-19 CNS): > 100 µM | TGI (CCRF-CEM leukemia): > 100 µM | TGI (OVCAR-4 ovarian): > 100 µM | TGI (SW-620 colon): > 100 µM | TGI (UACC-62 melanoma): > 100 µM

C=C1C(=O)O[C@@H]2C[C@@H](C)[C@@H]3C=CC(=O)[C@@]3(C)[C@@H](O)[C@H]12
TGI (HCT-116 colon): 4.06 µM | TGI (ACHN renal): 6.33 µM | TGI (SF-539 CNS): 9.36 µM | TGI (OVCAR-3 ovarian): 3.72 µM | TGI (MDA-N): 5.66 µM | TGI (MCF7 breast): 2.3 µM | TGI (MDA-MB-435): 3.39 µM | TGI (LOX IMVI melanoma): 2.01 µM | TGI (TK-10 renal): 11.8 µM | TGI (DMS 114 small cell lung): 3.84 µM | TGI (RPMI-8226 leukemia): 2.81 µM | TGI (NCI-H23 lung): 4.15 µM | TGI (DLD-1 colon): 1.49 µM | TGI (EKVX NSCLC): 8.89 µM | TGI (SF-295 CNS): 6.48 µM | TGI (HCC-2998 colon): 2.85 µM | TGI (NCI-H522 lung): 0.663 µM | TGI (NCI-H460 lung): 4.46 µM | TGI (T-47D breast): 12.2 µM | TGI (K-562 leukemia): 8.34 µM | TGI (SK-MEL-5 melanoma): 2.67 µM | TGI (M14 melanoma): 5.63 µM | TGI (RXF 393 renal): 1.35 µM | TGI (COLO 205 colon): 5.11 µM | TGI (CAKI-1 renal): 1.2 µM | TGI (SR leukemia): 2.65 µM | TGI (NCI-H226 lung): 4.9 µM | TGI (KM12 colon): 3.31 µM | TGI (SK-MEL-28 melanoma): 3.77 µM | TGI (SK-MEL-2 melanoma): 4.04 µM | TGI (PC-3 prostate): 7.22 µM | TGI (A498 renal): 3.52 µM | TGI (IGROV1 ovarian): 8.1 µM | TGI (HL-60(TB) leukemia): 2.4 µM | TGI (HOP-62 NSCLC): 17.7 µM | TGI (A549 NSCLC): 11.8 µM | TGI (DU-145 prostate): 15.5 µM | TGI (BT-549 breast): 2.32 µM | TGI (SF-268 CNS): 27.9 µM | TGI (MDA-MB-231 breast): 7.35 µM | TGI (786-0 renal): 5.4 µM | TGI (UO-31 renal): 3.65 µM | TGI (LXFL 529 NSCLC): 1.68 µM | TGI (SN12C renal): 2.91 µM | TGI (KM20L2 colon): 3.87 µM | TGI (DMS 273 small cell lung): 4.48 µM | TGI (HT29 colon): 3.88 µM | TGI (MOLT-4 leukemia): 3.36 µM | TGI (HCT-15 colon): 9.54 µM | TGI (U251 CNS): 2.99 µM | TGI (UACC-257 melanoma): 3.09 µM | TGI (OVCAR-8 ovarian): 5.71 µM | TGI (OVCAR-5 ovarian): 3.37 µM | TGI (SNB-19 CNS): 7.02 µM | TGI (CCRF-CEM leukemia): 2.05 µM | TGI (OVCAR-4 ovarian): 10.5 µM | TGI (SW-620 colon): 2.59 µM | TGI (UACC-62 melanoma): 5.46 µM | TGI (HOP-18 NSCLC): 3.53 µM | TGI (MALME-3M melanoma): 3.87 µM | TGI (M19-MEL melanoma): 20.6 µM | TGI (SNB-75 CNS): 2.58 µM

From PubChem BioAssay (NCI)
